# Measured values from patent US5061714A, “Isoquinoline composition for the treatment of glaucoma or ocular hypertension” (priority 1989, dated 1991).
# Counter-ions that a name gives are not always drawn.
# Assay: Acute toxicity test (LD50) in mice
# Conditions: mouse, in vivo
# Experimental: 4-(3-tert.-Butylamino-2-hydroxypropoxy)-2-methyl-1-isoquinolinone hydrochloride and 4-(3-tert.-butylamino-2-hydroxypropoxy)-1-isoquinolinonehydrochloride, respectively were administered to mice to determine the LD50 value.
compound,measurement,setting,value
CC(C)(C)NCC(O)COc1c[nH]c(=O)c2ccccc12 (centres unmarked) [4-(3-tert.-butylamino-2-hydroxypropoxy)-1-isoquinolinonehydrochloride],LD50,"ip, intraperitoneal, female",367 mg/kg
same,LD50,"ip, intraperitoneal, male",382 mg/kg
same,LD50,"po, female",2470 mg/kg
same,LD50,"po, male",2810 mg/kg
Cl.Cn1cc(OCC(O)CNC(C)(C)C)c2ccccc2c1=O (centres unmarked) [4-(3-tert.-butylamino-2-hydroxypropoxy)-2-methyl-1-isoquinolinone hydrochloride],LD50,"ip, intraperitoneal, female",557 mg/kg
same,LD50,"ip, intraperitoneal, male",578 mg/kg
same,LD50,"po, female",1290 mg/kg
same,LD50,"po, male",1390 mg/kg
